Test results taken from publication PMC7230911, “Meroterpenoids from the Brown Alga Cystoseira usneoides as Potential Anti-Inflammatory and Lung Anticancer Agents” (Marine Drugs, 2020).

Legend:
TNF-α = TNF-α production in LPS-stimulated THP-1 macrophages (ELISA); format: cell-based; conditions: Homo sapiens, 1 h pretreatment, then LPS 1 μg/mL 24 h; for inhibition at 8 µg/mL: 8 μg/mL; for inhibition at 4 µg/mL: 4 μg/mL
Protocol: (§1) To determine the effects of the AMTs 1–8 on the production of TNF-α, IL-6, and IL-1β, THP-1 macrophaghes were pretreated with the compounds and then stimulated with LPS, as the triggering factor to stimulate the cytokines production. The levels of pro-inflammatory cytokines in the cell supernatants were determined using the enzyme-linked immunosorbent (ELISA) kits.
(§2) Figure 2 Meroterpenoids 1–8 inhibit LPS-induced expression of TNF-α, IL-6, and IL-1β in THP-1 macrophages (A, B, and C) respectively. Cells were pretreated for 1 h with the compounds (1, 2, 3, 4, 7, and 8 at 8 μg/mL; 5 and 6 at 4 μg/mL), followed by 24 h treatment with LPS. TNF-α (A), IL-6 (B) and IL-1β (C) contents in the culture medium were determined by ELISA. Dexametasone (DEX) was used as positive control. Data are expressed as means ± SE from three independent experiments. Statistical significance is indicated (+++p < 0.001 and +++< 0.01 vs. Control; respectively * p < 0.05, ** p < 0.01, *** p < 0.001 vs. Control + LPS).
(§3) THP-1 cells were plated at a density of 3 × 10^5 cells/mL in 24-well plates and incubated with PMA (0.2 μM) for 72 h in a humidified atmosphere of 5% CO2 at 37 °C. The macrophages were pre-treated for 1 h with AMTs 1–8 (8 μg/mL for compounds 1, 2, 3, 4, 7, and 8, and 4 μg/mL for 5 and 6) and then stimulated with lipopolysaccharide (LPS, 1 μg/mL) for another 24 h. Dexamethasone (Dex) was used as positive reference compound at 1 μM. The viability of cells was greater than 95% throughout the experiment. The levels of TNF-α, IL-6, and IL-1ß in supernatants were measured with enzyme-linked immune-sorbent assay (ELISA) kits (Diaclone GEN-PROBE, Besançon cedex, France) according to the manufacturer’s protocols. The absorbance was determined at 450 nm using a microplate reader. To calculate the concentration of cytokines, a standard curve was constructed using serial dilutions of cytokine standards provided with the kit.

IL-1β = IL-1β production in LPS-stimulated THP-1 macrophages (ELISA); format: cell-based; conditions: Homo sapiens, 1 h pretreatment, then LPS 1 μg/mL 24 h; for inhibition at 8 µg/mL: 8 μg/mL; for inhibition at 4 µg/mL: 4 μg/mL
Protocol: as §1, §2, §3

[1] = system: human lung adenocarcinoma A549 cells; experiment: Cytotoxicity against lung cancer cells A549 (MTT assay); format: cell-based; conditions: for IC50 / viability at 50 µg/mL: Homo sapiens, A549, MTT; for IC50: 72 h of treatment, mean ± SE; for Selectivity Index SI: SI = IC50 value for normal cells (MRC-5)/IC50 value for cancer cells (A549); for viability at 50 µg/mL: 50 μg/mL, 72 h, read-out: cell viability of cancer cells
Protocol: (§4) The effect of the AMTs 1–8 on cell viability was investigated in the human lung cancer cell line A549. […] It has been reported that compounds with SI value higher or equal to 2.0 are potentially selective. […] It is worth noting that after treatment with 50 μg/mL of these two AMTs, the cell viability was lower than 15% for cancer cells and higher than 55% for normal cells.
(§5) Figure 4 Effects of different concentrations of meroterpenoids 1–8 on the viability of human lung cancer cell line A549 and the human fetal lung fibroblastic MRC-5 cells, using MTT assay after 72 h of treatment. Data are mean ±SE of three independent experiments. * p < 0.05, ** p < 0.01 and […] between the two cell lines.
(§6) Cell proliferation was evaluated by a modified MTT assay, which measures the mitochondrial dehydrogenase activity. A total of 5 × 10^3 cells/well (MRC-5 cells) and 3 × 10^3 cells/well (A549 cells) were cultured in a 96-well plate for 24 h. Then, treatments were added to the cell culture. After 72 h of incubation, the medium was removed and 125 µL of MTT (1 mg/mL in medium) was added to each well and incubated for 4 h. Next, 80 µL of 20% sodium dodecyl sulphate (SDS) was added and incubated for 5 h at 37 °C. The optical density of each well was measured at 540 nm (Synergy HT multiwell plate spectrophotometer reader, BioTek Instruments Inc., Winooski, VT, USA) to quantify cell viability. Cell viability (%) was calculated according to the following formula: % viability = (absorbance of compounds treated cells/absorbance of control cells) × 100. The degree of selectivity of the compounds was expressed by its SI value. Each SI value was calculated using the formula: SI = IC50 normal cell/IC50 cancer cell.

[2] = system: human fetal lung fibroblastic MRC-5 cells; experiment: Cytotoxicity against normal lung cells MRC-5 (MTT assay); format: cell-based; conditions: Homo sapiens, MRC5, 72 h of treatment, mean ± SE
Protocol: as §4, §5, §6

THP-1 macrophages = experiment: Cell viability of THP-1 macrophages (SRB assay); format: cell-based, human; conditions: LPS-stimulated THP-1 macrophages, 0–100 µg/mL, 48 and 72 h, data not shown
Protocol: The cytotoxic effect of AMTs 1–8 on LPS-stimulated THP-1 macrophages was determined at different concentrations and incubation times (0–100 µg/mL, 48 and 72 h) using the SRB assay. […] Therefore, in order to rule out cytotoxic effects, compounds 1, 2, 3, 4, 7, and 8 were tested on THP-1 cells at maximum concentration of 8 µg/mL while 5 and 6 were tested at maximum concentration of 4 µg/mL. The viability of THP-1 cells was measured by the SRB assay. The cells were seeded in 96-well plates with the growth medium at a density of 1 × 10^4 cells per well, and differentiation into macrophages was induced by 0.2 μM of phorbol myristate acetate (PMA). Three days after differentiation into macrophages, the cells were treated with various concentrations (0, 3.125, 6.25, 12.5, 25, 50, 100 µg/mL) of the AMTs 1–8 in fresh medium and incubated for another 72 h. Then, the cells were fixed with 50 μL of TCA (50%) and processed, as described in the literature.

Row | Compound | inhibition at 8 µg/mL (TNF-α) [%] | inhibition at 8 µg/mL (IL-1β) [%] | IC50 [1] [µg/mL] | Selectivity Index SI [1] | IC50 [2] [µg/mL] | concentration up to which cell viability is not affected (THP-1 macrophages) | viability at 50 µg/mL [1] [%] | inhibition at 4 µg/mL (TNF-α) [%] | inhibition at 4 µg/mL (IL-1β) [%]
1 | COc1c(C)cc(O)cc1C/C=C(\C)CC(=O)/C=C(/C)CCCC(C)(O)C(=O)/C=C/C(C)(C)O (stereo not shown) [Compound 1, usneoidone Z] | 73.1 | 74.6 | 8.68 ± 0.15 | 1.22 | 10.6 ± 0.5 | up to 10 µg/mL |  |  | 
2 | COc1c(C)cc(O)cc1C/C=C(\C)CC(=O)/C=C(\C)CCCC(C)(O)C(=O)/C=C/C(C)(C)O (stereo not shown) [Compound 2, 11-hydroxy-1’-O-methylamentadione] | 64.1 | 84.4 | 6.61 ± 0.38 | 1.30 | 8.65 ± 0.18 | up to 10 µg/mL |  |  | 
3 | COc1c(C)cc(O)cc1C/C=C(\C)CC(=O)/C=C(\C)CCCC(C)=O [Compound 3, cystomexicone B] | 57.1 | 35.3 | 24.4 ± 1.71 | 2.12 | 51.9 ± 2.76 | up to 10 µg/mL | < 15 |  | 
4 | COc1c(C)cc(O)cc1C/C=C(\C)CC(=O)/C=C(/C)CCCC(C)=O [Compound 4, cystomexicone A] | 42.2 to 43.3 |  | 21 ± 1.79 | 2.78 | 58.4 ± 3.3 | up to 10 µg/mL | < 15 |  | 
5 | COc1c(C)cc(O)cc1C/C=C(\C)CC(=O)/C=C(/C)CCCC(C)C(=O)/C=C/C(C)(C)O (stereo not drawn) [Compound 5, 6-cis-amentadione-1′-methyl ether] |  |  | 4.56 ± 0.21 | 1.83 | 8.39 ± 0.14 | up to 6 µg/mL |  | 55.3 | 86
6 | COc1c(C)cc(O)cc1C/C=C(\C)CC(=O)/C=C(\C)CCCC(C)C(=O)/C=C/C(C)(C)O (stereo not shown) [Compound 6, amentadione-1′-methyl ether] |  |  | 6.19 ± 0.25 | 1.43 | 8.87 ± 0.05 | up to 6 µg/mL |  | 42.2 to 43.3 | 61.1
7 | COc1c(C)cc(O)cc1/C=C/C(C)(O)CC(=O)/C=C(/C)CCCC(C)C(=O)/C=C/C(C)(C)O (stereo not shown) [Compound 7, cystodione A] | 42.2 to 43.3 | 44.9 | 9.31 ± 0.33 | 1.55 | 14.5 ± 1.14 | up to 10 µg/mL |  |  | 
8 | COc1c(C)cc(O)cc1/C=C/C(C)(O)CC(=O)/C=C(\C)CCCC(C)C(=O)/C=C/C(C)(C)O (stereo not shown) [Compound 8, cystodione B] | 52.6 | 44.6 | 13.6 ± 0.55 | 1.28 | 17.83 ± 0.09 | up to 10 µg/mL |  |  | 
